This data set can be described thus: In vitro release kinetics: cleavage rate of the reversible bond in aqueous buffer. The data set is classed as physicochemical. Conditions: aqueous buffer (sodium phosphate with acetonitrile), pH 7.4, 37° C., 48 mM sodium phosphate, 20% acetonitrile, disappearance of conjugate by LCMS (UV), read-out: t1/2 (pH 7.4) (converted). On the procedure: The cleavage rate of the reversible bond from conjugates 6, 10 and 11 was monitored at pH 7.4 and 37° C. in aqueous buffer (pH 7.4 48 mM sodium phosphate, 20% acetonitrile). The disappearance of the conjugate was determined by LCMS (UV detection) and fitted with curve fitting software to obtain the half-life of the release.
With `CCOC(c1ccccc1)n1cnc2ccccc21` (stereo not drawn) [Compound 6], the half-life was 8 days.
For `CCOC(c1ccc(CC(=O)O)cc1)n1cnc2ccccc21` (stereo not drawn) [Compound 10] the value was 0.417 days.
For `CCOC(c1ccccc1)n1ncc2ccccc21` (stereo not drawn) [Compound 11] the value was 5.7 days.

These data come from patent US20220305129A1, “CONJUGATES OF HETEROAROMATIC NITROGEN-COMPRISING COMPOUNDS” (Ascendis Pharma A/S, priority 2019, published 2022).
